Reference: patent publication US10251835B2, “Cranial delivery of pharmaceuticals” (GLIA, LLC, priority 2013, dated 2019)
“Also recorded” adds a separate entry of the source.

What was measured:
Assay type in all cases: in vivo, human
[1] = system: patient with corneal Herpes zoster; assay: Treatment of herpetic keratitis; conditions: for intraocular pressure: ganciclovir gel plus progesterone to forehead
Text: A person suffered a first onset of active corneal Herpes zoster. They presented with classic Herpes Zoster symptoms including, left hemisphere unilateral skin lesions on forehead, bridge of nose area and down the nose not including the tip; left cornea dendrites, keratitis and edema; loss of functional vision, elevated intraocular pressure as high as 42 mm Hg, conjunctival irritation and redness and anesthetic cornea. There were also general body flu symptoms.
The patient was initially treated with ophthalmic prednisolone acetate 1% up to 5 times daily, ophthalmic antibiotics, non-prescription ophthalmic wetting agents, and lubrication with gels administered to the eye. Additional drug therapies included systemic oral valcyclovir as high as 2 g per day and medications to reduce intraocular pressure.
Despite the therapy, symptom flare-up was as frequent as 2 weeks to 1 month over the past 10 years. Although intraocular pressure returned to within the normal range, cataracts formed as a result of long term use of corticosteroids.
The cornea surface contour became increasingly distorted with prominent ridges. There was incursion of capillaries across the conjunctiva into the cornea, both superficially and deep. Deposition of phospholipids through a leaching process occluded the cornea with grey color deposits on about 50% of its surface.
Corneal thinning had progressed to near perforation levels which required preparation for corneal patch surgery.
At this point, 1% topical progesterone (approximately 1 mg of progesterone) was first administered as a method to keep the cornea from perforating and the tear film intact. The drug was applied to the forehead 4 times daily together with topical antibiotics and corticosteroids.
After stabilizing the cornea, antiviral treatment was begun with ganciclovir gel (0.15%; 0.15 mg of drug) applied five times daily to the forehead together with once daily progesterone (1%; 1 mg of drug) and a nightly drop of ophthalmic antibiotic. Intraocular pressure measured at the onset of ganciclovir treatment was 18 mm Hg.
The patient reported a decrease in eye strain as a result of an improvement in tear film. […] Over the next two weeks, inflammation was further reduced and visual acuity increased somewhat when the head was tilted back. During the first full month of treatment, the affected eye generally felt comfortable. There was a lack of inflammation, and some vision returned to the threshold of functionality. Intraocular pressure remained normal in the range of 16 mm Hg.
There was modest improvement in reading the eye chart, and corneal staining due to defects was minimized. Intraocular pressure remained normal in both eyes at about 16 mm Hg during this period. The phospholipid deposits further reduced in density and began to give the appearance of lesser areas of concentrations. Nearly functional vision could be achieved by positioning the head back and viewing through the central cornea. The residual clear area of the cornea became more so and less inflamed. Through the end of the second month, improvement to the cornea accelerated. The pupil was now clearly visible and more light was entering the eye.
The patient was examined regularly by an ophthalmologist, and after three and one half months of treatment. The intraocular pressure was normal at 12 mm Hg. […] Intraocular pressure has remained in the same range for more than one year.

patients with dyslexia = assay: Treatment of dyslexia and impaired executive brain function exacerbated by traumatic brain injury; conditions: person
Description: A patient had been diagnosed in childhood with dyslexia. Symptoms included unstable binocular fixation while reading, the inability without compensating to find the end of one line and beginning of the next, and double overlapping perception of lines of print. They were also unable to read aloud in a fluid manner.
The individual applied a topical gel containing 4% by weight progesterone (4 mg of drug) to the forehead area.
The application was repeated twice over the next few days and the patient tested themself by reading text.
Regular treatment was continued for 10 weeks with the 4% progesterone gel applied to the forehead twice daily. The patient reported that in living with dyslexia for 52 years, they had never experienced as much stress relief in their visual system after the treatment.
After 8 weeks of treatment, the individual was asked to read aloud a complex paragraph of 8 sentences from their computer screen.
Treatment was interrupted after 10 weeks to determine the duration of benefit.
Seven years prior to initiation of progesterone topical treatment, the patient had suffered traumatic brain injury (TBI) in an auto accident. They reported exacerbation of their vision problems as a result of the accident.
After the crash they suffered from post-traumatic stress disorder triggered by loud sounds. The patient could not even listen to music because it would induce nausea. Two months after initiation of the progesterone treatment, they regained a good deal of social conformability, improved their ability to organize thoughts, eliminated their disjointed thinking, and gained the ability to write coherently.
A person who had been diagnosed with severe reading problems in third grade was later recognized as having dyslexia. Their reading problems became exacerbated by an automobile accident in 1980, following six months of coma. In general reading was a chore. However they made a concerted effort to learn to read, starting with children's books, and is now able to read regular print. Reading issues were exemplified by the need to place a ruler below each line so that they can follow the line and find the next line, and seeing letters backwards. They are not able to read small print at all. About 4 years ago their vision became worse. They were prescribed glasses that they use during periods when vision is worse than usual, whether near, intermediate, or far in distance.
A 1% progesterone topical composition was applied to forehead. […] The effect lasted from the time of application, around 7:30 pm to bedtime at around 11 pm.

[2] = system: patients with ocular discomfort resulting from dry eye; assay: Treatment of dry eye with topical progesterone applied cranially
Description: Twenty-seven patients diagnosed with ocular discomfort resulting from dry eye were treated with topical progesterone (0.5%-1% by weight, corresponding to approximately 1-4 mg progesterone per application) applied to the forehead either once or twice per day.
A summary of clinical results is shown below in Table 2.

[3] = system: post-surgical patients on glaucoma medication; assay: Treatment of ocular discomfort and redness in post-surgical patients and patients on glaucoma medication; conditions: 1% progesterone to forehead, three times daily or 2-3 times then once a day
Text: A […] […] had four eye surgeries and was being treated with two glaucoma eye drops (dorzolamide-timolol combination and travaprost) together with a lubricating eye gel twice a day.
A […] […] had multiple surgeries and was diagnosed with Fuch's corneal dystrophy and narrow angle glaucoma. Prior to the latest surgery, when they were almost legally blind, they started applying to their forehead 1% progesterone 2-3 times a day, then reduced the application frequency to once a day.

[4] = system: females with wrist fracture pain or wrist arthritis; assay: Treatment of pain; conditions: person
Text: A person suffered a wrist fracture of the left distal radius and ulnar styloid, with subsequent severe pain.
A person was diagnosed 10 years ago with arthritis in their right wrist, with pain, weakness, and limited motion in the hand and wrist. […] The condition has worsened since they were first diagnosed. The individual is being treated with regular steroid injections. […] They are able to twist open tightly closed containers. Additionally, bone snapping sounds and feelings are no longer present.

[5] = 1% progesterone topical composition to forehead

CC(=O)[C@H]1CC[C@H]2[C@@H]3CCC4=CC(=O)CC[C@]4(C)[C@H]3CC[C@]12C [progesterone]
corneal deterioration ([1]; 1% progesterone (about 1 mg) to forehead 4 times daily together with topical antibiotics and corticosteroids): Further corneal deterioration was halted
inflammation, visual acuity and state of affected eye ([1]; ganciclovir gel 0.15% (0.15 mg) five times daily plus progesterone 1% (1 mg) once daily to forehead, nightly ophthalmic antibiotic, 1 week to 3.5 months): less inflammation and a slight improvement in visual acuity; also recorded: some functional vision was attained; also recorded: stable and normalizing
intraocular pressure ([1]; after three and one half months): 12 mm Hg
intraocular pressure ([1]; both eyes, examination period up to third month): about 16 mm Hg
intraocular pressure ([1]; first full month of treatment): ~16 mm Hg
reading and vision (patient report) (patients with dyslexia; [5]): able to read without using; also recorded: distance vision also improved; also recorded: no longer bothered by the headlight glare; also recorded: Reapplication next morning restored vision improvements
time until they could feel a clearing in their head (patients with dyslexia; [5]): About 5 minutes
reading ability and visual system (patient report) (patients with dyslexia; 4% progesterone gel to forehead, single applications then twice daily up to 10 weeks): effect lasting for hours; also recorded: slightly better and easier reading and line tracking; also recorded: lasted for about four hours; also recorded: able to track from one end of a line of text to the beginning of the next line without using a ruler; also recorded: read aloud with less choppiness; also recorded: accurate and fluid with only one word lapse
executive function and stress after traumatic brain injury (patients with dyslexia; 4% progesterone gel to forehead, two months): improved executive function; also recorded: much lower level of stress; also recorded: ability to do simple math in their head
time until eyes relaxed into alignment (patients with dyslexia; gel 4% progesterone (4 mg) to forehead): ≤ 60 s
duration of benefit after interruption (patients with dyslexia; ten days after stopping 10 weeks of 4% progesterone gel): continued benefit with only slight degradation
Results ([2]; 0.5-1% on the forehead, once daily): After prolonged use, no longer requires; also recorded: Eyes moist and tearing minutes after; also recorded: application. Stopped all auxiliary eye
Results ([2]; 1% progesterone ON): Equally effective. Uses nightly once a day
overall clinical result in twenty-seven dry eye patients ([2]; progesterone 0.5%-1% (about 1-4 mg per application) to forehead once or twice per day): Improvement was seen in all cases; also recorded: Most patients were able to discontinue previous therapy
time until moisture felt ([2]; subject 4, 1% progesterone): moisture felt after 10 minutes; after weeks
ocular discomfort, redness and need for lubricating drops [3]: able to stop using the lubricating drops; also recorded: Redness also disappeared; also recorded: helped to ease irritation, lid sticking and redness
wrist pain, mobility and strength ([4]; arthritis, five days after applying 1% progesterone to forehead): significantly less wrist pain and increased mobility and strength
time to significant decrease in pain ([4]; wrist fracture, approximately 4 mg progesterone to forehead): ≤ 15 min
